By amount remaining is commonly meant the share of the starting amount still present when the sample was taken. Low values mean more turnover, high ones less turnover.

Square brackets hold non-standard residues; d marks the D form. Peptide text beside a SMILES is read from it. * marks the point of attachment. FITC = O=C1OC2(c3ccc(O)cc3Oc3cc(O)ccc32)c2ccc(NC(=S)*)cc21

The nature of one series: in vitro. In kind it is in vitro ADME, P. aeruginosa PAO1. The note with it: cells or culture medium. As for the experimental part: P. aeruginosa PAO1 lysate, which was used to test peptide stability, was prepared by the following procedure. 500 ml of cells grown overnight at 37°C were harvested by centrifugation at 5000 rpm, 10 min at 4°C. Pellets were resuspended in 60 ml PBS (Gibco) and centrifuged at 5000 rpm, 10 min at 4°C. Pellets were resuspended again in 20 ml PBS and centrifuged at 5000 rpm, 10 min at 4°C. Cells were disrupted using high-pressure cell disrupter (Stansted Fluid Power). Cell lysate was separated from cell debris by centrifugation at 14,000 rpm for 20 min at 4°C. Lysate was diluted 10 fold to yield a protein content of about 1 mg/ml. The lysate was used for all experiments described below.
The stability of peptides was tested against P. aeruginosa PAO1 cell lysate. About 1 to 3 µg of peptides were incubated with 5 µl P. aeruginosa PAO1 cell lysate or PBS (untreated controls) at 37°C. After 2 hours, 6 µl of 2x SDS sample buffer was added to the samples and heated to 95°C for 5 min. Samples were analyzed on 10-20% Mini-PROTEAN tris-tricine gels (BIO-RAD #4563115) according to manufacturer's recommended protocol. Band intensities were quantified using the program ImageJ (Schneider, C. A., Rasband, W. S. and Eliceiri, K. W. 2012. NIH Image to ImageJ: 25 years of image analysis. Nature methods. 9: 671-675).

For series [1], the system named is P. aeruginosa PAO1 biofilms. In kind it is cell-based. The note with it: PAO1, 24 h. As for the experimental part: The parameter "MBIC50", as used herein, is defined as the peptide concentration leading to 50% biofilm reduction in a standard biofilm assay. Preferably, the medium used for the assay is Mueller-Hinton broth (MHB), since most bacteria can be grown in this medium, and it allows a reliable comparison of MBIC values. MBIC50 values in accordance with the invention are obtained by growing P. aeruginosa at 37°C in presence of different concentrations of peptides, without agitation, for 24 h, followed by staining the adherent biofilm, dissolving the biofilm and measuring the OD600.
The standard biofilm assay (O'Toole G.A., Pratt L.A., Watnick P.I., Newman D.K., Weaver V.B., and Kolter R. 1999. Genetic approaches to study of biofilms. Methods Enzymol. 310: 91-109) was followed with minor modification, i.e. Mueller-Hinton II broth (MHB) (Becton Dickinson #212322) was used instead of lysogenic broth (LB) or minimal medium. MHB is preferred by The European Committee on Antimicrobial Susceptibility Testing (EUCAST) as the medium for MIC determination because most bacteria can be grown in this medium, which allows a more reliable MIC values comparisons. The MBIC50 was defined as the peptide concentration leading to 50% biofilm reduction (de la Fuente-Nunez C., Korolik V., Bains M., Nguyen U., Breidenstein E. B. M., Horsman S., Lewenza S., Burrows L., Hancock, R. E. W. (2012) Inhibition of bacterial biofilm formation and swarming motility by a small synthetic cationic peptide. 56: 2696-2704). MBIC50 values were obtained by growing P. aeruginosa (PAO1) biofilms in 96-well plates (Falcon #353072) in presence of peptides at 37°C without agitation in MHB. After 24 hours, bacterial growth was evaluated by measuring the OD600 in a microtiter plate reader (EL800, BioTek). Afterwards, the plates were rinsed three times with demineralized water to remove non-attached bacteria. The adherent biofilms were stained with 0.1% Crystal Violet and subsequently dissolved in 20% acetic acid. Dissolved biofilms were quantified by measuring the OD600 in a microtiter plate reader.

Another series addresses c-di-GMP. The experiment in a line: Binding affinity of peptides to c-di-GMP by isothermal titration calorimetry (ITC). The note with it: for Kd: Table 3, peptides with amino acid substitution, 15°C, pH 8.0, read-out: Dissociation constant. Here is the method:
Binding affinities of peptides to c-di-GMP were measured using isothermal titration calorimetry (ITC) on a VP-ITC MicroCalorimeter (MicroCal, Northampton, MA, USA). Peptides, c-di-GMP and buffer (50 mM Tris-HCl, pH 8.0, 100 mM NaCl) were degassed for 15 min prior to filling into sample cell and syringe. All experiments were carried out at a temperature of 15°C. The data were evaluated using ITC Data Analysis in ORIGIN provided by the manufacturer.

Turning to `C[C@H](NC(=O)[C@H](CO)NC(=O)[C@H](CC(N)=O)NC(=O)[C@H](Cc1ccccc1)NC(=O)[C@H](CCCNC(=N)N)NC(=O)[C@H](CCCNC(=N)N)NC(=O)[C@H](CCCNC(=N)N)NC(=O)[C@H](CC(=O)O)NC(=O)[C@H](N)CCCNC(=N)N)C(=O)N[C@@H](CC(=O)O)C(=O)N[C@@H](Cc1ccc(O)cc1)C(=O)N[C@@H](CCCCN)C(=O)NCC(=O)N1CCC[C@H]1C(=O)N[C@@H](CCCNC(=N)N)C(=O)N[C@@H](CCCNC(=N)N)C(=O)N[C@@H](CCCNC(=N)N)C(=O)N[C@@H](CCCCN)C(=O)N[C@@H](C)C(=O)N[C@@H](CC(=O)O)C(=O)N[C@H](C)C(=O)O` [compound 40] (H-[dR]DRRRFNSADYKGPRRRKAD[dA]-OH), the share remaining at 2 h in “in vitro” turned out to be 15%.
Compound `CC(=O)N[C@H](CCCNC(=N)N)C(=O)N[C@@H](CC(=O)O)C(=O)N[C@@H](CCCNC(=N)N)C(=O)N[C@@H](CCCNC(=N)N)C(=O)N[C@@H](CCCNC(=N)N)C(=O)N[C@@H](Cc1ccccc1)C(=O)N[C@@H](CC(N)=O)C(=O)N[C@@H](CO)C(=O)N[C@@H](C)C(=O)N[C@@H](CC(=O)O)C(=O)N[C@@H](Cc1ccc(O)cc1)C(=O)N[C@@H](CCCCN)C(=O)NCC(=O)N1CCC[C@H]1C(=O)N[C@@H](CCCNC(=N)N)C(=O)N[C@@H](CCCNC(=N)N)C(=O)N[C@@H](CCCNC(=N)N)C(=O)N[C@@H](CCCCN)C(=O)N[C@@H](C)C(=O)N[C@@H](CC(=O)O)C(=O)N[C@H](C)C(N)=O` [compound 41] (Ac-[dR]DRRRFNSADYKGPRRRKAD[dA]-NH2) showed an amount remaining at 2 h in the series “in vitro” of 19%.
The same measure, in the same setting: with `C[C@H](NC(=O)[C@H](CO)NC(=O)[C@H](CC(N)=O)NC(=O)[C@H](Cc1ccccc1)NC(=O)[C@H](CCCNC(=N)N)NC(=O)[C@H](CCCNC(=N)N)NC(=O)[C@H](CCCNC(=N)N)NC(=O)[C@H](CC(=O)O)NC(=O)[C@H](N)CCCNC(=N)N)C(=O)N[C@@H](CC(=O)O)C(=O)N[C@@H](Cc1ccc(O)cc1)C(=O)N[C@@H](CCCCN)C(=O)NCC(=O)N1CCC[C@H]1C(=O)N[C@@H](CCCNC(=N)N)C(=O)N[C@@H](CCCNC(=N)N)C(=O)N[C@@H](CCCNC(=N)N)C(=O)N[C@@H](CCCCN)C(=O)N[C@@H](C)C(=O)N[C@@H](CC(=O)O)C(=O)N[C@H](C)C(N)=O` [compound 42] (H-[dR]DRRRFNSADYKGPRRRKAD[dA]-NH2) the figure was 38%.
The compound `C[C@H](NC(=O)[C@H](CO)NC(=O)[C@H](CC(N)=O)NC(=O)[C@H](Cc1ccccc1)NC(=O)[C@H](CCCNC(=N)N)NC(=O)[C@H](CCCNC(=N)N)NC(=O)[C@H](CCCNC(=N)N)NC(=O)[C@H](CC(=O)O)NC(=S)Nc1ccc2c(c1)C(=O)OC21c2ccc(O)cc2Oc2cc(O)ccc21)C(=O)N[C@@H](CC(=O)O)C(=O)N[C@@H](Cc1ccc(O)cc1)C(=O)N[C@@H](CCCCN)C(=O)NCC(=O)N1CCC[C@H]1C(=O)N[C@@H](CCCNC(=N)N)C(=O)N[C@@H](CCCNC(=N)N)C(=O)N[C@@H](CCCNC(=N)N)C(=O)N[C@@H](CCCCN)C(=O)N[C@@H](C)C(=O)N[C@@H](CC(=O)O)C(N)=O` [compound 43] ({FITC}-DRRRFNSADYKGPRRRKAD-NH2) returned an MBIC50 in series [1] of 0.25 to 0.5 mg/L.
For “Ac-ARRRFNSADYKGPRRRKAD-NH2 [compound 13]”, in “in vitro”, the amount remaining at 2 h worked out at 56%. Further, the Kd on c-di-GMP came out at 1530 nM.
In “in vitro”, “Ac-DARRFNSADYKGPRRRKAD-NH2 [compound 14]” displayed an amount remaining at 2 h of 12%. The Kd on c-di-GMP stood at 1450 nM.
Compound “Ac-DRARFNSADYKGPRRRKAD-NH2 [compound 15]” showed a fraction remaining at 2 h in “in vitro” of 11%. Also, the Kd on c-di-GMP was 1510 nM.
The like results for “Ac-DRRAFNSADYKGPRRRKAD-NH2 [compound 16]” were, in that order, 35% and 780 nM.
In “in vitro”, “Ac-DRRRANSADYKGPRRRKAD-NH2 [SEQ ID NO: 17, AC-DRRRANSADYKGPRRRKAD-NH2]” yielded an amount remaining at 2 h of 70%. The “binding affinity to c-di-GMP, in words” value in the series with c-di-GMP (compared to the core sequence / peptide of SEQ ID NO: 12) is listed as “does not significantly reduce binding affinity”.
Take “Ac-DRRRFASADYKGPRRRKAD-NH2 [compound 18]”: in “in vitro”, the amount remaining at 2 h was 1%. In addition, the Kd at c-di-GMP is 220 nM.
In turn, “Ac-DRRRFNAADYKGPRRRKAD-NH2 [compound 19]” registered an amount remaining at 2 h in the series “in vitro” of 30%. Moreover, the Kd on c-di-GMP is 210 nM.
The like results for “Ac-DRRRFNSAAYKGPRRRKAD-NH2 [compound 21]” were, in that order, 2% and 150 nM.
In the case of “Ac-DRRRFNSADAKGPRRRKAD-NH2 [compound 22]”, the amount remaining at 2 h in the series “in vitro” amounted to 39%. The Kd at c-di-GMP came out at 4360 nM.
The compound “Ac-DRRRFNSADYAGPRRRKAD-NH2 [compound 23]” yielded a fraction remaining at 2 h in the series “in vitro” of 42%. The Kd at c-di-GMP came to 260 nM.
Compound “Ac-DRRRFNSADYKAPRRRKAD-NH2 [compound 24]” yielded a share remaining at 2 h in the series “in vitro” of 41%. For the same compound, the Kd on c-di-GMP worked out at 4070 nM.
“Ac-DRRRFNSADYKGARRRKAD-NH2 [compound 25]” came in with a share remaining at 2 h in the series “in vitro” of 30%. Also, at c-di-GMP, the Kd was 350 nM.
Consider “Ac-DRRRFNSADYKGPARRKAD-NH2 [compound 26]”, for which, in the series “in vitro”, the fraction remaining at 2 h was determined as 27%. At c-di-GMP, the Kd was found to be 1830 nM.
The compound “Ac-DRRRFNSADYKGPRARKAD-NH2 [compound 27]” yielded a share remaining at 2 h in “in vitro” of 2%. Besides, on c-di-GMP, the Kd was found to be 3950 nM.
The like results for “Ac-DRRRFNSADYKGPRRRAAD-NH2 [compound 29]” were, in that order, 9% and 270 nM.
“Ac-DRRRFNSADYKGPRRRKAA-NH2 [compound 31]” gave an amount remaining at 2 h in the series “in vitro” of 26%. Besides, the Kd at c-di-GMP was 1750 nM.
For “Ac-DRRRFNSADYKGPRRRKAD-NH2 [compound 12]”, the MBIC50 in series [1] is 0.25 to 0.5 mg/L.
In the series “in vitro”, “Ac-DRRRFNSADYKGPRRRKLD-NH2 [compound 30]” displayed a fraction remaining at 2 h of 51%. The Kd at c-di-GMP was found to be 250 nM.
In the case of “Ac-DRRRFNSLDYKGPRRRKAD-NH2 [compound 20]”, the amount remaining at 2 h in “in vitro” was determined as 27%. Also, on c-di-GMP, the Kd was found to be 100 nM.
